{"source": "patent US20260262643A1", "about": "“HERBICIDAL BENZOXAZINES” (FMC CORPORATION, priority 2022, published 2026)", "key": {"barnyardgrass [1]": {"tested_on": "barnyardgrass", "test": "Test C preemergence", "format": "in vivo, Echinochloa crusgalli", "outline": "(§1)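 Soil-applied (pre) and foliar (post, 1–2 leaf, 2–10 cm) sprays; surfactant-containing non-phytotoxic solvent vehicle; loam/sand substrate. Readout: visual % control at 10 d, greenhouse, versus untreated.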"}, "ryegrass, Italian [2]": {"tested_on": "ryegrass, Italian", "test": "Test C preemergence", "format": "in vivo, Lolium multiflorum", "outline": "as §1"}, "barnyardgrass [3]": {"tested_on": "barnyardgrass", "test": "Test D flooded paddy test", "format": "in vivo, Echinochloa crus-galli", "settings": "250 g ai/ha, applied to paddy water, visual rating after 13 to 14 days, scale 0 to 100 (0 no effect, 100 complete control)", "outline": "(§2)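 Visual ratings from 0, meaning no effect, to 100, meaning complete control, were assigned against untreated controls 13 to 14 days after compounds were added to the floodwater of pots kept 3 cm deep, with plants at the 2-leaf stage.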"}, "foxtail, giant [4]": {"tested_on": "foxtail, giant", "test": "Test C postemergence", "format": "in vivo, Setaria faberi", "settings": "10 days, 0 to 100 scale (0 no effect, 100 complete control)", "outline": "as §1"}, "sedge, umbrella": {"tested_on": "sedge, umbrella", "test": "Test D flooded paddy test", "format": "in vivo, Cyperus difformis", "settings": "250 g ai/ha, applied to paddy water, visual rating after 13 to 14 days, scale 0 to 100 (0 no effect, 100 complete control)", "outline": "as §2"}, "wheat [5]": {"tested_on": "wheat", "test": "Test C postemergence", "format": "in vivo, Triticum aestivum", "settings": "10 days, 0 to 100 scale (0 no effect, 100 complete control)", "outline": "as §1"}, "ragweed [6]": {"tested_on": "ragweed", "test": "Test C postemergence", "format": "in vivo, Ambrosia artemisiifolia", "settings": "10 days, 0 to 100 scale (0 no effect, 100 complete control)", "outline": "as §1"}, "blackgrass [7]": {"tested_on": "blackgrass", "test": "Test C postemergence", "format": "in vivo, Alopecurus myosuroides", "settings": "10 days, 0 to 100 scale (0 no effect, 100 complete control)", "outline": "as §1"}, "oat, wild [8]": {"tested_on": "oat, wild", "test": "Test C postemergence", "format": "in vivo, Avena fatua", "settings": "10 days, 0 to 100 scale (0 no effect, 100 complete control)", "outline": "as §1"}, "soybean [9]": {"tested_on": "soybean", "test": "Test C preemergence", "format": "in vivo, Glycine max", "outline": "as §1"}, "pigweed, palmer [10]": {"tested_on": "pigweed, palmer", "test": "Test C postemergence", "format": "in vivo, Amaranthus palmeri", "settings": "10 days, 0 to 100 scale (0 no effect, 100 complete control)", "outline": "as §1"}, "wheat [11]": {"tested_on": "wheat", "test": "Test C preemergence", "format": "in vivo, Triticum aestivum", "outline": "as §1"}, "barnyardgrass [12]": {"tested_on": "barnyardgrass", "test": "Test C postemergence", "format": "in vivo, Echinochloa crusgalli", "settings": "10 days, 0 to 100 scale (0 no effect, 100 complete control)", "outline": "as §1"}, "kochia [13]": {"tested_on": "kochia", "test": "Test C postemergence", "format": "in vivo, Bassia scoparia", "settings": "10 days, 0 to 100 scale (0 no effect, 100 complete control)", "outline": "as §1"}, "oat, wild [14]": {"tested_on": "oat, wild", "test": "Test C preemergence", "format": "in vivo, Avena fatua", "outline": "as §1"}, "ryegrass, Italian [15]": {"tested_on": "ryegrass, Italian", "test": "Test C postemergence", "format": "in vivo, Lolium multiflorum", "settings": "10 days, 0 to 100 scale (0 no effect, 100 complete control)", "outline": "as §1"}, "rice": {"tested_on": "rice", "test": "Test D flooded paddy test", "format": "in vivo, Oryza sativa", "settings": "250 g ai/ha, applied to paddy water, visual rating after 13 to 14 days, scale 0 to 100 (0 no effect, 100 complete control)", "outline": "as §2"}, "blackgrass [16]": {"tested_on": "blackgrass", "test": "Test C preemergence", "format": "in vivo, Alopecurus myosuroides", "outline": "as §1"}, "foxtail, giant [17]": {"tested_on": "foxtail, giant", "test": "Test C preemergence", "format": "in vivo, Setaria faberi", "outline": "as §1"}, "ragweed [18]": {"tested_on": "ragweed", "test": "Test C preemergence", "format": "in vivo, Ambrosia artemisiifolia", "outline": "as §1"}, "galium": {"tested_on": "galium", "test": "Test C postemergence", "format": "in vivo, Galium aparine", "settings": "10 days, 0 to 100 scale (0 no effect, 100 complete control)", "outline": "as §1"}, "soybean [19]": {"tested_on": "soybean", "test": "Test C postemergence", "format": "in vivo, Glycine max", "settings": "10 days, 0 to 100 scale (0 no effect, 100 complete control)", "outline": "as §1"}, "corn [20]": {"tested_on": "corn", "test": "Test C postemergence", "format": "in vivo, Zea mays", "settings": "10 days, 0 to 100 scale (0 no effect, 100 complete control)", "outline": "as §1"}, "kochia [21]": {"tested_on": "kochia", "test": "Test C preemergence", "format": "in vivo, Bassia scoparia", "outline": "as §1"}, "horseweed": {"tested_on": "horseweed", "test": "Test C postemergence", "format": "in vivo, Erigeron canadensis", "settings": "10 days, 0 to 100 scale (0 no effect, 100 complete control)", "outline": "as §1"}, "pigweed, palmer [22]": {"tested_on": "pigweed, palmer", "test": "Test C preemergence", "format": "in vivo, Amaranthus palmeri", "outline": "as §1"}, "ducksalad": {"tested_on": "ducksalad", "test": "Test D flooded paddy test", "format": "in vivo, Heteranthera limosa", "settings": "250 g ai/ha, applied to paddy water, visual rating after 13 to 14 days, scale 0 to 100 (0 no effect, 100 complete control)", "outline": "as §2"}, "corn [23]": {"tested_on": "corn", "test": "Test C preemergence", "format": "in vivo, Zea mays", "outline": "as §1"}, "[24]": {"settings": "500 g ai/ha, preemergence, 0 to 100 scale (0 no effect, 100 complete control)"}, "[25]": {"settings": "Preemergence, 125 g ai/ha, 0 to 100 scale, 0 no effect, 100 complete control"}}}
{"smiles": "CC(C)c1ncn(-c2cc(C(=O)N3CC(C(F)(F)F)Oc4c(Cl)cccc43)ccn2)n1", "note": "(racemic) [Compound 329]", "values": [{"measurement": "Barnyardgrass plant response rating", "setting": "barnyardgrass [1]; [24]", "value": 100}, {"measurement": "Plant response rating, Barnyardgrass", "setting": "barnyardgrass [1]; [25]", "value": 70}, {"measurement": "Ryegrass, Italian plant response rating", "setting": "ryegrass, Italian [2]; [24]", "value": 100}, {"measurement": "Plant response rating, Ryegrass, Italian", "setting": "ryegrass, Italian [2]; [25]", "value": 70}, {"measurement": "Plant response rating, Barnyardgrass (Flood)", "setting": "barnyardgrass [3]", "value": 0}, {"measurement": "Plant response rating, Foxtail, Giant", "setting": "foxtail, giant [4]; 500 g ai/ha, postemergence", "value": 90}, {"measurement": "Plant response rating, Foxtail, Giant", "setting": "foxtail, giant [4]; Postemergence, 125 g ai/ha", "value": 50}, {"measurement": "Plant response rating, Sedge, Umbrella (Flood)", "setting": "sedge, umbrella", "value": 0}, {"measurement": "Plant response rating, Wheat", "setting": "wheat [5]; 500 g ai/ha, postemergence", "value": 50}, {"measurement": "Plant response rating, Wheat", "setting": "wheat [5]; Postemergence, 125 g ai/ha", "value": 20}, {"measurement": "Plant response rating, Ragweed", "setting": "ragweed [6]; 500 g ai/ha, postemergence", "value": 40}, {"measurement": "Plant response rating, Ragweed", "setting": "ragweed [6]; Postemergence, 125 g ai/ha", "value": 40}, {"measurement": "Plant response rating, Blackgrass", "setting": "blackgrass [7]; 500 g ai/ha, postemergence", "value": 90}, {"measurement": "Plant response rating, Blackgrass", "setting": "blackgrass [7]; Postemergence, 125 g ai/ha", "value": 50}, {"measurement": "Plant response rating, Oat, Wild", "setting": "oat, wild [8]; 500 g ai/ha, postemergence", "value": 80}, {"measurement": "Plant response rating, Oat, Wild", "setting": "oat, wild [8]; Postemergence, 125 g ai/ha", "value": 30}, {"measurement": "Soybean plant response rating", "setting": "soybean [9]; [24]", "value": 80}, {"measurement": "Plant response rating, Soybean", "setting": "soybean [9]; [25]", "value": 0}, {"measurement": "Plant response rating, Pigweed, Palmer", "setting": "pigweed, palmer [10]; 500 g ai/ha, postemergence", "value": 80}, {"measurement": "Plant response rating, Pigweed, Palmer", "setting": "pigweed, palmer [10]; Postemergence, 125 g ai/ha", "value": 20}, {"measurement": "Wheat plant response rating", "setting": "wheat [11]; [24]", "value": 30}, {"measurement": "Plant response rating, Wheat", "setting": "wheat [11]; [25]", "value": 10}, {"measurement": "Plant response rating, Barnyardgrass", "setting": "barnyardgrass [12]; 500 g ai/ha, postemergence", "value": 60}, {"measurement": "Plant response rating, Barnyardgrass", "setting": "barnyardgrass [12]; Postemergence, 125 g ai/ha", "value": 10}, {"measurement": "Plant response rating, Kochia", "setting": "kochia [13]; 500 g ai/ha, postemergence", "value": 90}, {"measurement": "Plant response rating, Kochia", "setting": "kochia [13]; Postemergence, 125 g ai/ha", "value": 70}, {"measurement": "Oat, Wild plant response rating", "setting": "oat, wild [14]; [24]", "value": 80}, {"measurement": "Plant response rating, Oat, Wild", "setting": "oat, wild [14]; [25]", "value": 30}, {"measurement": "Plant response rating, Ryegrass, Italian", "setting": "ryegrass, Italian [15]; 500 g ai/ha, postemergence", "value": 70}, {"measurement": "Plant response rating, Ryegrass, Italian", "setting": "ryegrass, Italian [15]; Postemergence, 125 g ai/ha", "value": 50}, {"measurement": "Plant response rating, Rice (Flood)", "setting": "rice", "value": 0}, {"measurement": "Blackgrass plant response rating", "setting": "blackgrass [16]; [24]", "value": 80}, {"measurement": "Plant response rating, Blackgrass", "setting": "blackgrass [16]; [25]", "value": 60}, {"measurement": "Foxtail, Giant plant response rating", "setting": "foxtail, giant [17]; [24]", "value": 100}, {"measurement": "Plant response rating, Foxtail, Giant", "setting": "foxtail, giant [17]; [25]", "value": 100}, {"measurement": "Ragweed plant response rating", "setting": "ragweed [18]; [24]", "value": 60}, {"measurement": "Plant response rating, Ragweed", "setting": "ragweed [18]; [25]", "value": 0}, {"measurement": "Plant response rating, Galium", "setting": "galium; 500 g ai/ha, postemergence", "value": 100}, {"measurement": "Plant response rating, Galium", "setting": "galium; Postemergence, 125 g ai/ha", "value": 60}, {"measurement": "Plant response rating, Soybean", "setting": "soybean [19]; 500 g ai/ha, postemergence", "value": 100}, {"measurement": "Plant response rating, Soybean", "setting": "soybean [19]; Postemergence, 125 g ai/ha", "value": 100}, {"measurement": "Plant response rating, Corn", "setting": "corn [20]; 500 g ai/ha, postemergence", "value": 80}, {"measurement": "Plant response rating, Corn", "setting": "corn [20]; Postemergence, 125 g ai/ha", "value": 30}, {"measurement": "Kochia plant response rating", "setting": "kochia [21]; [24]", "value": 100}, {"measurement": "Plant response rating, Kochia", "setting": "kochia [21]; [25]", "value": 40}, {"measurement": "Plant response rating, Horseweed", "setting": "horseweed; 500 g ai/ha, postemergence", "value": 0}, {"measurement": "Plant response rating, Horseweed", "setting": "horseweed; Postemergence, 125 g ai/ha", "value": 0}, {"measurement": "Pigweed, Palmer plant response rating", "setting": "pigweed, palmer [22]; [24]", "value": 100}, {"measurement": "Plant response rating, Pigweed, Palmer", "setting": "pigweed, palmer [22]; [25]", "value": 90}, {"measurement": "Plant response rating, Ducksalad (Flood)", "setting": "ducksalad", "value": 0}, {"measurement": "Corn plant response rating", "setting": "corn [23]; [24]", "value": 40}, {"measurement": "Plant response rating, Corn", "setting": "corn [23]; [25]", "value": 20}]}
